The values that follow come from publication PMC8164657, “Intraoperative visualization of nerves using a myelin protein-zero specific fluorescent tracer” (EJNMMI Research, 2021).

Residues, ends and D or L forms follow the SMILES beside them. *: point of attachment. X3 = O=C(O)CN(CCN(CCN(CC(=O)O)CC(=O)O)CC(=O)NCCN1C(=O)CC(*)C1=O)CC(=O)O

The subject of data set [1] is P0-expressing RT4 D6P2T myelinating Schwannoma cells. Nature of the data set: Fluorescence confocal microscopy staining of P0-expressing cells. As to conditions: 1 µM, 1 h incubation at 4 °C, N = 3 per tracer. Format: cell-based. As for the experimental part:
Cells were trypsinized and seeded onto 35-mm culture dishes that contained a glass insert (MatTek co) on the day prior to the imaging experiment.
To all samples, 1 mL medium containing 1 µM Cy5-P0_1–25, Cy5-P0_21–45, Cy5-P0_41–65, Cy5-P0_61–85, Cy5-P0_81–105, Cy5-P0_95–120, or Cy5-P0_101–125 was added at one hour prior to imaging (incubation at 4 °C; N = 3 per tracer). Peptide solutions were sonicated for 20 s prior to addition, in order to prevent aggregation of the peptides in solution. Cy5-functionalized derivatives of a P0-specific antibody (Cy5-P0Ab-H60), the extracellular portion of P0 (Cy5-P0ex) as well as a non-P0-specific peptide (Cy5-NP-41) and non-functionalized Cy5-Maleimide were used as controls (1 µM). A lysosomal (lysotracker green; 2 µL/mL, DND-26, Thermo Fisher) and nuclear stain (Hoechst 33342; 1 mg/mL, Thermo Fisher) were added as means to localize the cell nucleus and intracellular lysosomes. […]
In vitro and ex vivo fluorescence confocal images were acquired using a Leica SP8 WL at sequential settings and 10 × or 63 × magnification. […] For blocking studies, quantification of the fluorescence signal intensity (N = 10 for blocked and non-blocked) in the obtained images was performed using ImageJ according to previously described methods. […]

The next data set in a line: Biodistribution in mice. As to conditions: mouse, CNS, total radioactivity; 10 MBq intravenous (tail vein), 4 h p.i. Format: in vivo. As for the experimental part: Synthesis and radiolabelling of DTPA-P0_101–125 with ^111In is described in Additional file 1: synthesis of control compounds. For quantitative assessment of the biodistribution of [^111In]In-DTPA-P0_101–125, 10 MBq of the labelled tracer was injected intravenously (tail vein). The percentage of the injected activity per gram of tissue (%IA/g) was assessed at 2 h post-injection as previously described. Excretion was defined as: (MBq present in animal at 24 h post-tracer administration/injected activity) * 100%.

On to `C[N+]1=C(/C=C/C=C/C=C2/N(CCCCCC(=O)NCCN3C(=O)C=CC3=O)c3ccccc3C2(C)C)C(C)(C)c2ccccc21.[Cl-]` [Cy5-Maleimide], for which, in data set [1], the “staining of P0-expressing Schwannoma cells” value was “no staining was observed”.

For the compound `CC[C@H](C)[C@H](NC(=O)[C@H](CC(=O)O)NC(=O)[C@@H]1CCCN1C(=O)[C@@H]1CCCN1C(=O)[C@H](CC(N)=O)NC(=O)[C@H](CCCCN)NC(C)=O)C(=O)N[C@H](C(=O)NCC(=O)N[C@@H](CCCCN)C(=O)N[C@H](C(=O)N[C@@H](CO)C(=O)N[C@@H](CCC(N)=O)C(=O)N[C@H](C(=O)N[C@H](C(=O)N[C@@H](CC(C)C)C(=O)N[C@@H](Cc1ccc(O)cc1)C(=O)N[C@H](C(=O)N[C@@H](Cc1ccccc1)C(=O)N[C@@H](CCC(=O)O)C(=O)N[C@@H](CCCCN)C(=O)N[C@H](C(=O)N1CCC[C@H]1C(=O)N[C@H](C(=O)N[C@@H](CCCNC(=N)N)C(=O)N[C@@H](Cc1ccc(O)cc1)C(=O)N[C@@H](CSC1CC(=O)N(CCNC(=O)CN(CCN(CC(=O)O)CC(=O)O)CCN(CC(=O)O)CC(=O)O)C1=O)C(N)=O)[C@@H](C)O)C(C)C)C(C)C)[C@@H](C)O)C(C)C)[C@@H](C)O)C(C)C` (some centres unmarked) [[^111In]In-DTPA-P0_101–125, metal not drawn] (Ac-KNPPDIVGKTSQVTLYVFEKVPTRYC(X3)-NH2), the tissue uptake at 4 h in the data set “Biodistribution in mice” was 0.12 ± 0.03 %ID/g.
